Like-named read-outs stand apart in the source and are kept apart here.
Key:
[1] = Preliminary clinical pharmacokinetics, AURA Phase 1; assay type: in vivo, human
[2] = test system: EGFR in mutant and wild-type cell lines; assay: In vitro EGFR phosphorylation assay, mutant and wild-type cell lines overall; conditions: compared to AZD9291
[3] = Pharmacokinetics after oral dosing in the mouse; assay type: in vivo
[4] = test system: mutant and wild-type EGFR cell lines; assay: Sytox phenotypic assay across cell lines; assay type: cell-based
[5] = test system: T790M EGFR cell lines (H1975, PC-9VanR); conditions: compared to AZD9291
[6] = test system: wild-type EGFR cell lines (Calu3, H2073); assay: Sytox Green live/dead cell phenotype assay, wild-type EGFR lines; assay type: cell-based; conditions: compared to AZD9291
[7] = Adverse events and blood glucose in two patients, AURA Phase 1; assay type: in vivo, human
[8] = Body weight of xenograft-bearing mice on daily dosing; assay type: in vivo, mouse; conditions: daily dosing for 200 days, PC-9 and H1975 studies
[9] = test system: approximately 280 other kinases; assay: Commercial biochemical kinome panel
[10] = test system: phospho-EGFR (Tyr1173) in H1975 xenografts; assay: Pharmacodynamics in H1975 xenografts; assay type: in vivo, mouse; conditions: single dose 5 mg/kg
A431 xenografts = conditions: 5 mg/kg/day
[11] = test system: lines harboring non-T790M resistance: 11-18/ER (NRAS), HCC827/ER2 (MET amplification), HCC4006/ER (EMT); conditions: independent laboratory
[12] = test system: EGFR L861Q, G719S and exon 19 insertion (I744-K745insKIPVAI); assay: Phospho-EGFR immunoblot in transfected 293 cells, rare sensitive mutants; assay type: cell-based; conditions: 6 hours
[13] = test system: lines harboring EGFR T790M (H1975, HCC827/ER1, PC-9/BRc1 and H3255/XLR); conditions: independent laboratory
EBC-1 cells = assay: Large cell panel proliferation profiling study; assay type: cell-based; conditions: Homo sapiens, EBC-1, read-out: IC50, proliferation
[14] = test system: PC-9 (ex19del) tumor xenograft; assay: PC-9
[15] = Blood glucose and insulin levels after single oral dose in rats; assay type: in vivo, rat; conditions: single oral dose of 200 mg/kg, over a 24 hour period
[16] = test system: advanced EGFRm+ T790M NSCLC; assay: Radiographic tumor response; assay type: in vivo, human; conditions: for tumor shrinkage: 20 mg once daily
[17] = test system: H1781 cells (VC insertion at G776 in exon 20 of HER2); assay: Growth inhibition of HER2 mutant H1781 cells; assay type: cell-based; conditions: NCI-H1781, read-out: IC50, growth
[18] = test system: Parental EGFRm+ lines (PC-9, H3255, HCC827, HCC4006, 11-18); assay: Growth inhibition assay; assay type: cell-based; conditions: independent laboratory
[19] = test system: EGFR^L858R + T790M driven lung adenocarcinomas (C/L+T mice); assay: C/L+T transgenic lung adenocarcinoma model; conditions: AZD9291 5 mg/kg/day, afatinib 7.5 mg/kg/day, AZ5104 5 mg/kg/day; one to two weeks
NCI-H820 cells = assay: Large cell panel proliferation profiling study; assay type: cell-based; conditions: NCI-H820, read-out: IC50, proliferation
IGF-1R = IGF-1R (Homo sapiens, UniProt P08069); assay: Cellular IGF-1R phosphorylation assay; assay type: cell-based; conditions: cellular phosphorylation assay as surrogate
Sequence of IGF-1R (P08069 31-1367, species assumed): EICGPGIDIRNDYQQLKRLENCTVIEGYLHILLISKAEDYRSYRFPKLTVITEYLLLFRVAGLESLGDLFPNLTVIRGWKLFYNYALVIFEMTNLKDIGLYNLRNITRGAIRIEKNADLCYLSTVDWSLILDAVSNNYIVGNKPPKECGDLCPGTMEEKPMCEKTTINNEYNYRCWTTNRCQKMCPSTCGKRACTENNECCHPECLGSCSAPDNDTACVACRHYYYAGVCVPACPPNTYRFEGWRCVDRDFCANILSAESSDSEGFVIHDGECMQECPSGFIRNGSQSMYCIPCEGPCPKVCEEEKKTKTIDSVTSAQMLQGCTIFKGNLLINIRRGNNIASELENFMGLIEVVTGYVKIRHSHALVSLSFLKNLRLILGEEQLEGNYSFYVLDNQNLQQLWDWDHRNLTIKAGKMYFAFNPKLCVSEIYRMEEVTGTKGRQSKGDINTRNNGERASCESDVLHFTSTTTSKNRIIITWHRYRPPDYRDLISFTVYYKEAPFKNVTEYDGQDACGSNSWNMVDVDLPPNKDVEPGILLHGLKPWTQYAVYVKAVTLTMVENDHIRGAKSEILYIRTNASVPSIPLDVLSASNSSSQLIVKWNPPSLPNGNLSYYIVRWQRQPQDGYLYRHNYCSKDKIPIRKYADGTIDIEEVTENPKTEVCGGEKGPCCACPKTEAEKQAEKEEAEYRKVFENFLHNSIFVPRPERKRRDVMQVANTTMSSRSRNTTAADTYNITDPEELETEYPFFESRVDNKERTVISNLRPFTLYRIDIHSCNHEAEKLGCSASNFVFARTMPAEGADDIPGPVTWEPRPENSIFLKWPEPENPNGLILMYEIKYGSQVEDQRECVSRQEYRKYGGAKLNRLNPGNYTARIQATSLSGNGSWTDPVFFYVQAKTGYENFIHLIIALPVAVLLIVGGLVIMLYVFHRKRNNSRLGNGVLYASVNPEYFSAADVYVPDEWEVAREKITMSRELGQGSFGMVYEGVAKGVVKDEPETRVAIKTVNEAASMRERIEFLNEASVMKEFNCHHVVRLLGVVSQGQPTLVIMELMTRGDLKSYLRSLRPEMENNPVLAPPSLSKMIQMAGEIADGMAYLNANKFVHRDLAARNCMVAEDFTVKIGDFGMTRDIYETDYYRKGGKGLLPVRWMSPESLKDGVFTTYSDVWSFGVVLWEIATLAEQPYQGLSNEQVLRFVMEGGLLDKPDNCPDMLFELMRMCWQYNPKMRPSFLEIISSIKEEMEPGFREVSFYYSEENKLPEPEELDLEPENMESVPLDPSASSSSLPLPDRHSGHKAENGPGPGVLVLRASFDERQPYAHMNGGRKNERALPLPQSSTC

[20] = test system: EGFR^L858R driven lung adenocarcinomas (C/L858R mice); assay: C/L858R transgenic lung adenocarcinoma model
HER2 (ErbB2) = HER2 (ErbB2) (Homo sapiens, UniProt P04626); assay: Cellular HER2 phosphorylation; assay type: cell-based; conditions: three cellular approaches
Sequence of HER2 (ErbB2) (P04626 676-1255 limits assumed): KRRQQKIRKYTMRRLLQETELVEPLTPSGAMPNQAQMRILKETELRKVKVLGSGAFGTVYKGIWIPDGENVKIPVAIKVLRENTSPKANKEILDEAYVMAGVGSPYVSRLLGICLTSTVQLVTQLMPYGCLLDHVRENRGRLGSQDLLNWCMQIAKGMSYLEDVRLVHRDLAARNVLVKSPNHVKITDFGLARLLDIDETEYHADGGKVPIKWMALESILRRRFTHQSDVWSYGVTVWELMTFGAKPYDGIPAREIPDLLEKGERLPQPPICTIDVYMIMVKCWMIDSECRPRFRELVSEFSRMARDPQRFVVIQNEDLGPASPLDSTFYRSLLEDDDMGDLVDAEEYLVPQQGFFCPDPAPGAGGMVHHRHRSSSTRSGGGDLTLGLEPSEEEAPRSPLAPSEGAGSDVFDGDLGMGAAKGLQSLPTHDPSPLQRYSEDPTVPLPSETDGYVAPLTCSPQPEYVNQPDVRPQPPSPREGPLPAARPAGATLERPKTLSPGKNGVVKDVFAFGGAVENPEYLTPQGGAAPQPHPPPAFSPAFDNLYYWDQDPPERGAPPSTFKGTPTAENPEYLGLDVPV

[21] = test system: phospho-EGFR and downstream markers; conditions: 5mg/kg dosing
[22] = target: EGFR variant III (EGFRvIII) (Homo sapiens, UniProt P00533, DELINS30-297G); assay: Phospho-EGFR immunoblot in transfected 293 cells, EGFRvIII; assay type: cell-based; conditions: 6 hours
[23] = target: wild-type EGFR (A431, LOVO, NCI-H2073) (Homo sapiens, UniProt P00533); assay: In vitro EGFR phosphorylation assay; assay type: cell-based; conditions: read-out: potency against wild-type EGFR
[24] = test system: EGFR^L858R driven lung adenocarcinomas (C/L858R mice); conditions: cited from earlier work
[25] = test system: EGFR^L858R + T790M driven lung adenocarcinomas (C/L+T mice); conditions: cited from earlier work
[26] = patients, AZD9291 mesylate 20 mg oral, preliminary

**Q.** What does the source list for `C=CC(=O)Nc1cc(Nc2nccc(-c3cn(C)c4ccccc34)n2)c(OC)cc1N(C)CCNC` [AZ7550]?
**A.** half-life [1, 26]: at least 50 hours; potency and profile against mutant and wild-type cell lines [2]: very similar potency and profile to AZD9291; total exposure levels (AUC) compared to the parent compound ([3]; circulating metabolite in plasma): approximately 68%; potency across cell lines in phenotypic assay [4]: broadly similar

**Q.** What does the source list for `COc1cc2ncnc(Nc3ccc(F)c(Cl)c3)c2cc1NC(=O)/C=C/CN1CCCCC1` [dacomitinib]?
**A.** activity against T790M lines, Sytox [5]: much less activity against T790M lines; potency towards wild-type EGFR, Sytox [6]: much greater potency towards wild-type EGFR

**Q.** With `C=CC(=O)Nc1cc(Nc2nccc(-c3cn(C)c4ccccc34)n2)c(OC)cc1N(C)CCN(C)C` [AZD9291] as the compound, how does the diarrhea events ([7]; 20 mg once daily) read?
**A.** one reported CTCAE Grade 1 diarrhea

**Q.** What about the rash events ([7]; 20 mg once daily) of the same compound?
**A.** no rash events

**Q.** And the blood glucose levels ([7]; during the study)?
**A.** No significant aberration

**Q.** And the body weight loss [8]?
**A.** less than 5 % of starting body weight

**Q.** And the “off-target kinase activity / secondary target profile” value ([9]; 1 μM)?
**A.** minimal off-target kinase activity

**Q.** What about the “inhibition at 1 μM” value ([9]; ErbB2/4, ACK1, ALK, BLK, BRK, MLK1 and MNK2) of the same compound?
**A.** greater than 60%

**Q.** And the “phospho-EGFR and downstream signalling” value ([10]; after 6 hours)?
**A.** strongly inhibited

**Q.** And the phospho-EGFR staining ([10]; after the 30 hour time point)?
**A.** remained significantly diminished

**Q.** What about the tumor growth inhibition (A431 xenografts) of the same compound?
**A.** moderate tumor growth inhibition

**Q.** What about the “activity against lines harboring non-T790M resistance” value [11] of the same compound?
**A.** not effective

**Q.** What about the “effect on phospho-EGFR of L861Q, G719S and exon 19 insertion” value [12] of the same compound?
**A.** somewhat less potent compared with the AZ5104 metabolite

**Q.** And the “activity against lines harboring EGFR T790M” value [13]?
**A.** low nanomolar activity

**Q.** And the IC50 (EBC-1 cells)?
**A.** ~1000 nM

**Q.** What about the “tumors with no visible tumor” value ([14]; following 40 daily doses with 5 mg/kg, sustained out to 200 days) of the same compound?
**A.** 8 of 8

**Q.** And the “lowest dose with tumor shrinkage observed” value ([14]; once daily, after 14 days)?
**A.** 2.5 mg/kg/day

**Q.** What about the half-life ([1]; human, plasma, po, 20 mg) of the same compound?
**A.** ≥ 50 h

**Q.** And the “change in blood glucose or insulin levels” value [15]?
**A.** did not cause a significant change

**Q.** And the duration of response ([16]; both patients, 20 mg/day)?
**A.** approximately 9 months

**Q.** What about the progression-free time ([16]; both patients, 20 mg/day, RECIST 1.1) of the same compound?
**A.** approximately 11 months

**Q.** What about the tumor shrinkage ([16]; first patient, scan 1) of the same compound?
**A.** 39.7%

**Q.** What about the tumor shrinkage ([16]; first patient, scan 2) of the same compound?
**A.** 48.3%

**Q.** And the tumor shrinkage ([16]; first patient, scan 3)?
**A.** 48.3%

**Q.** What about the tumor shrinkage ([16]; first patient, scan 4) of the same compound?
**A.** 48.3%

**Q.** What about the tumor shrinkage ([16]; first patient, scan 5) of the same compound?
**A.** 51.7%

**Q.** What about the tumor shrinkage ([16]; second patient, scan 1) of the same compound?
**A.** 38%

**Q.** And the tumor shrinkage ([16]; second patient, scan 2)?
**A.** 39.3%

**Q.** And the tumor shrinkage ([16]; second patient, scan 3)?
**A.** 56.7%

**Q.** And the tumor shrinkage ([16]; second patient, scan 4)?
**A.** 62%

**Q.** What about the tumor shrinkage ([16]; second patient, scan 5) of the same compound?
**A.** 59.3%

**Q.** And the IC50 [17]?
**A.** 80 nM

**Q.** What about the “sensitivity of parental EGFRm+ lines” value [18] of the same compound?
**A.** sensitive

**Q.** And the bioavailability [3]?
**A.** good bioavailability

**Q.** And the clearance [3]?
**A.** moderate clearance

**Q.** What about the tissue distribution [3] of the same compound?
**A.** widely distributed in tissues

**Q.** What about the half-life ([3]; plasma, po) of the same compound?
**A.** ~3 h

**Q.** What about the “tumor response” value [19] of the same compound?
**A.** significant tumor shrinkage

**Q.** What about the IC50 (NCI-H820 cells) of the same compound?
**A.** ~1000 nM

**Q.** What about the “activity towards IGF-1R” value (IGF-1R) of the same compound?
**A.** did not exhibit significant activity

**Q.** And the “reduction in tumor volume by MRI” value ([20]; AZD9291 5 mg/kg/day, afatinib 7.5 mg/kg/day, 5 of 5 mice)?
**A.** ~80%

**Q.** What about the “inhibition of phosphorylation of HER2” value (HER2 (ErbB2)) of the same compound?
**A.** moderate potency levels

**Q.** What about the “target inhibition in treated tumors” value [21] of the same compound?
**A.** observed target inhibition

**Q.** What does the source list for `C=CC(=O)Nc1cc(Nc2nccc(-c3c[nH]c4ccccc34)n2)c(OC)cc1N(C)CCN(C)C` [AZ5104]?
**A.** half-life [1, 26]: at least 50 hours; potency against EGFRvIII mutant [22]: higher level of activity; tumor response [19]: effective in shrinking tumors; potency across cell lines in phenotypic assay ([4]; compared to AZD9291): much greater potency across cell lines; IC50 [23]: 33 nM; activity towards IGF-1R (IGF-1R): did not exhibit significant activity; tumor response ([20]; AZ5104 5 mg/kg/day): effective in shrinking tumors; inhibition of phosphorylation of HER2 (HER2 (ErbB2)): more potency than AZD9291

**Q.** For `CNC(=O)CN1CCC(Oc2cc3c(Nc4cccc(Cl)c4F)ncnc3cc2OC)CC1` [AZD8931], which “sensitivity of parental EGFRm+ lines” value [18] is on record?
**A.** sensitive

**Q.** For `COc1cc2ncnc(Nc3ccc(F)c(Cl)c3)c2cc1OCCCN1CCOCC1` [gefitinib, reference compound], which “time until tumors began to re-grow” value ([14]; 6.25 mg/kg/day) is on record?
**A.** approximately 90 days

**Q.** And the “tumor regression” value ([14]; 6.25 mg/kg/day, compared with AZD9291 5 mg/kg)?
**A.** less tumor regression

**Q.** Which tumor sensitivity [24] does the source give for `C#Cc1cccc(Nc2ncnc3cc(OCCOC)c(OCCOC)cc23)c1` [erlotinib] here?
**A.** sensitive

**Q.** And the tumor sensitivity [25]?
**A.** resistant

**Q.** What about the “sensitivity of parental EGFRm+ lines” value [18] of the same compound?
**A.** sensitive
